Experimental findings from ChEMBL document CHEMBL5696442, “Discovery of type II inhibitors of TGFβ-activated kinase 1 (TAK1) and mitogen-activated protein kinase kinase kinase kinase 2 (MAP4K2)” (J Med Chem, 2015) are described below.

For assay [1], the system named is Tyrosine-protein kinase ABL1 (Homo sapiens), P00519 [Y253F]. In words: Inhibition of phosphorylated ABL1 Y253F mutant (unknown origin) at 1 uM by Ambit Kinomescan binding assay relative to control; values are per cent of control.
Assay [2] has as its target Serine/threonine-protein kinase MRCK beta (Homo sapiens) (UniProt Q9Y5S2). In words: Inhibition of MRCKB (unknown origin) at 10 uM by Ambit Kinomescan binding assay.
For assay [3], the target named is T1, Phosphatidylinositol 4,5-bisphosphate 3-kinase catalytic subunit delta isoform (Homo sapiens) (UniProt O00329).
T1 sequence (whole entry): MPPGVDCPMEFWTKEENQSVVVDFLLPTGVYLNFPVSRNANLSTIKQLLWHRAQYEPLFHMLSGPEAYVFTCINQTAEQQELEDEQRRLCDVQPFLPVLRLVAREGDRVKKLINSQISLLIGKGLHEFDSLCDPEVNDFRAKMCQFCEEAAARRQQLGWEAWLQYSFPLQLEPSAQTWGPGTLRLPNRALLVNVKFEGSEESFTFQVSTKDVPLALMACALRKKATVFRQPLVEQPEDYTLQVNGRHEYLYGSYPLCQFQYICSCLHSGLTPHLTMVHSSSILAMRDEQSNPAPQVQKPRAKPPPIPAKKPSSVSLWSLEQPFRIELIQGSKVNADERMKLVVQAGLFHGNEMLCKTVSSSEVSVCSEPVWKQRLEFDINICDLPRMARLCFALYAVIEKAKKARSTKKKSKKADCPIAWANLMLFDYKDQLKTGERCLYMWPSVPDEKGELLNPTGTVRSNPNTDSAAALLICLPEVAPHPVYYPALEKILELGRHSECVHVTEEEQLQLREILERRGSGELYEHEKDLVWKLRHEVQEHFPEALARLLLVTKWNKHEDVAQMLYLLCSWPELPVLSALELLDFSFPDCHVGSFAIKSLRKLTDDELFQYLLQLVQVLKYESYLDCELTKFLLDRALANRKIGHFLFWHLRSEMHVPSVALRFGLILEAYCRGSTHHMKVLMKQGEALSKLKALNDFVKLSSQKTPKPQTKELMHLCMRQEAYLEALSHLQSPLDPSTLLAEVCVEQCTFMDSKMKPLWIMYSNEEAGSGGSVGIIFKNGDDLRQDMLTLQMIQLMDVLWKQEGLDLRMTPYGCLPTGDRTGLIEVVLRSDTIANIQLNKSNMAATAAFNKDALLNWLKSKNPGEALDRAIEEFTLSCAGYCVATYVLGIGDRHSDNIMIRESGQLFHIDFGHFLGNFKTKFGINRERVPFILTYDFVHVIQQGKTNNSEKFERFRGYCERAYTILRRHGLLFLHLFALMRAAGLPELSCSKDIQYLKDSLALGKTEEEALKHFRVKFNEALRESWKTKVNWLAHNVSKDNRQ
The experiment in a line: Inhibition of PIK3CD (unknown origin) at 10 uM by Ambit Kinomescan binding assay.

Assay [4] deals with T2, Dual specificity mitogen-activated protein kinase kinase 4 (Homo sapiens) (UniProt P45985).
T2 sequence (whole entry): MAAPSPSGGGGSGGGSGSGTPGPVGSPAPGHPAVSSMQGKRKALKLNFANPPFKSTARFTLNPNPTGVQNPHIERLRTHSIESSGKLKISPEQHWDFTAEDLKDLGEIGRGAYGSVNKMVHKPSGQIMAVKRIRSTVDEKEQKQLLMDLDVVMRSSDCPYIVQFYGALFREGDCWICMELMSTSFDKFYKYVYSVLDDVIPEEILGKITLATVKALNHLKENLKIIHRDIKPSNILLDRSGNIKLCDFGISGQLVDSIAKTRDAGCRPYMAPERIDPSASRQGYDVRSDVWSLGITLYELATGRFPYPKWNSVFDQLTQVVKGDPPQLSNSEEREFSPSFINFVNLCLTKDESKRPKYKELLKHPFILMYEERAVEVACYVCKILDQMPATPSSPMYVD
The experiment in a line: Inhibition of MAP2K4 K2 labeling site harbouring IIHRDIKPSNILLDR in human Huh-7 cells at 1 uM by KiNativ Profiling analysis relative to control. The format is cell-based.

Assay [5] addresses T3, NUAK family SNF1-like kinase 1 (Homo sapiens) (UniProt O60285).
T3 sequence (whole entry): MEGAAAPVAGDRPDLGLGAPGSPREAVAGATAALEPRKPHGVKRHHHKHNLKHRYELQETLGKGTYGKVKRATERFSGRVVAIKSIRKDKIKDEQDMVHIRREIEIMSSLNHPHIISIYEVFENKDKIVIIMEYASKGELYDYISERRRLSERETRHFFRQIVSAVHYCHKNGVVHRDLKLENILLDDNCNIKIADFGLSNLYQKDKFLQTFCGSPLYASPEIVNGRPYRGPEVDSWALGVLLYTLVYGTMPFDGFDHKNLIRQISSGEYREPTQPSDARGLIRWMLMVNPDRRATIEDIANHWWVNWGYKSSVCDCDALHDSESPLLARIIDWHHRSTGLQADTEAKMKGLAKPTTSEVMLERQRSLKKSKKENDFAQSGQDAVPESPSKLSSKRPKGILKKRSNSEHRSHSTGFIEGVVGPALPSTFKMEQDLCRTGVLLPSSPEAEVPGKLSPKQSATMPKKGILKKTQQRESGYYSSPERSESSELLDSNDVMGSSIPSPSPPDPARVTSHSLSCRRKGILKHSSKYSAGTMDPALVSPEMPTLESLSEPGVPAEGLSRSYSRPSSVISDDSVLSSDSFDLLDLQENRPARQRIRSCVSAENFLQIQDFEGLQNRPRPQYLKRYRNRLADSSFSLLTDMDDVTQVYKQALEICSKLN
The experiment in a line: Inhibition of NuaK1 Lys2 labeling site in human Huh-7 cells at 1 uM by KiNativ Profiling analysis relative to control. It is filed as cell-based.

The source made the active and inactive calls. No cut-off for these calls is given here.

Sequence of Serine/threonine-protein kinase MRCK beta (Homo sapiens) (Q9Y5S2 whole entry, canonical isoform): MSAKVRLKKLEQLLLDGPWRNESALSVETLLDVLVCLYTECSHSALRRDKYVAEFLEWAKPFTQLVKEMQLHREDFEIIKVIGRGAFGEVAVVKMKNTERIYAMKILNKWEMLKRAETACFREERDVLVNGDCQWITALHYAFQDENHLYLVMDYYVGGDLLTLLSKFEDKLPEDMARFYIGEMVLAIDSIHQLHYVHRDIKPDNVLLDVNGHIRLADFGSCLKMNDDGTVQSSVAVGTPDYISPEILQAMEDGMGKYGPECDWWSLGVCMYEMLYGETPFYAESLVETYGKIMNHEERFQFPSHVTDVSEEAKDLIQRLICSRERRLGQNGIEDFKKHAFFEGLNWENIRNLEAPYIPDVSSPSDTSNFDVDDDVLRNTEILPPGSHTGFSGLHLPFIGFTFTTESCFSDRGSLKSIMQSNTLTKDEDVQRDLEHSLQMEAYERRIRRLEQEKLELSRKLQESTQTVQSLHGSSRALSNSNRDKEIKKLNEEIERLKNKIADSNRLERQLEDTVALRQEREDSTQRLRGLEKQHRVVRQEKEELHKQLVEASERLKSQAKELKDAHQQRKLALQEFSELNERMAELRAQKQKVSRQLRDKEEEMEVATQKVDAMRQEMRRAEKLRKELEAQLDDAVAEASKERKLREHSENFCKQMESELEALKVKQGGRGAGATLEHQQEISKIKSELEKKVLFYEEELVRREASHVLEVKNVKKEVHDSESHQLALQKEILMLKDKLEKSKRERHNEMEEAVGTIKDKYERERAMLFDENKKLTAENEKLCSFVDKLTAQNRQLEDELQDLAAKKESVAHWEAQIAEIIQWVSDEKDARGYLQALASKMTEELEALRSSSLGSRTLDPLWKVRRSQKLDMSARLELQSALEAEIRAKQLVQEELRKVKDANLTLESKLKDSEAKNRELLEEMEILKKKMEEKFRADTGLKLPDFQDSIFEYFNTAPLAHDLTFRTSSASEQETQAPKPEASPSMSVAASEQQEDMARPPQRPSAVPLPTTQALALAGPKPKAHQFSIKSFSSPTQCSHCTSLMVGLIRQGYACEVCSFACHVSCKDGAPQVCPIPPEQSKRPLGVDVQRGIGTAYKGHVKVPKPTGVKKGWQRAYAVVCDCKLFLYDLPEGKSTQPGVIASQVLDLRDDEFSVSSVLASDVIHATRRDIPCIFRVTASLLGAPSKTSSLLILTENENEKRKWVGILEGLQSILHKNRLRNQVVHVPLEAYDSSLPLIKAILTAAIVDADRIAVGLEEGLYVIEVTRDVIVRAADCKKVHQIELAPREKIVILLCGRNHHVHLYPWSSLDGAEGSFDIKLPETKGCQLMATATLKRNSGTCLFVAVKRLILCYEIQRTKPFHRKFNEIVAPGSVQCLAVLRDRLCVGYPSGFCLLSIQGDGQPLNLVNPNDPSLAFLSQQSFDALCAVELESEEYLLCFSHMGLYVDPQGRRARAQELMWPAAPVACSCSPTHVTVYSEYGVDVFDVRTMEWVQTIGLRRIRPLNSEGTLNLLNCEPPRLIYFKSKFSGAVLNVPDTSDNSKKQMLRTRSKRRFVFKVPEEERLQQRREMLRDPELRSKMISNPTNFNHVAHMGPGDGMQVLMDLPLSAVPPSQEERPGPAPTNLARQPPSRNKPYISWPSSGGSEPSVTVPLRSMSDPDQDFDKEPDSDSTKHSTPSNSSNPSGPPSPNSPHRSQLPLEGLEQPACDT

With `CCN1CCN(Cc2ccc(NC(=O)c3ccc(C)c(/C=C/c4cnc5[nH]ccc5c4OC)c3)cc2C(F)(F)F)CC1`, in assay [1], the percent of control came to 0.75%.

With `CCN1CCN(Cc2ccc(NC(=O)c3ccc(C)c(Oc4ccnc5[nH]ccc45)c3)cc2C(F)(F)F)CC1`, the inhibition entry in assay [2] and in assay [3] was “inactive” each time. For the same compound, in assay [4], the inhibition – broadly, the relative decrease from the control value, in per cent – was -0.9%. As to `CNc1cc(Oc2cc(C(=O)Nc3cc(N4CCN(C)CC4)cc(C(F)(F)F)c3)ccc2C)ncn1`, the inhibition in assay [5] stood at 20.5%.
